Assay results: ChEMBL document CHEMBL1144906, “Characterization of the 5-HT(7) receptor. Determination of the pharmacophore for 5-HT(7) receptor agonism and CoMFA-based modeling of the agonist binding site” (J Med Chem, 2003)
Calls of active or inactive are those of the source. The calls are words filed in the database; no cut-off is given here.

Key:
[1] = biological target: 5-hydroxytryptamine receptor 7 (Rattus norvegicus, UniProt P32305); assay: Binding affinity at rat 5-hydroxytryptamine 7 receptor.
5-hydroxytryptamine receptor 7, sequence (P32305 whole entry): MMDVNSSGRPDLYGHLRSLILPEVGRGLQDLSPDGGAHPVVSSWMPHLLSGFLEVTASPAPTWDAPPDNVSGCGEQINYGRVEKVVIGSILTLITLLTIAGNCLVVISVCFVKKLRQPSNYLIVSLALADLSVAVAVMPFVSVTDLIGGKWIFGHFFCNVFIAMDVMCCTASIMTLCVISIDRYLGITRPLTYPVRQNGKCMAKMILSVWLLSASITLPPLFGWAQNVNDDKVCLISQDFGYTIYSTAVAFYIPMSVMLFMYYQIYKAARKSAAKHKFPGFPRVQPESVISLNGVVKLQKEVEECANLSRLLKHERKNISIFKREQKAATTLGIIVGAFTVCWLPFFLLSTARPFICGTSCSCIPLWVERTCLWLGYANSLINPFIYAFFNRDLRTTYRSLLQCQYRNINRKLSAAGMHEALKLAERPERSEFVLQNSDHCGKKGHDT

[2] = biological target: 5-hydroxytryptamine receptor 7 (Rattus norvegicus) (UniProt P32305); assay: Agonistic activity against rat 5-HT7 adenyl cyclase expressed in HEK293 cells; Active; type: functional, cell-based
5-hydroxytryptamine receptor 7 (Rattus norvegicus), sequence (P32305 whole entry): as above

[3] = biological target: 5-hydroxytryptamine receptor 7 (Rattus norvegicus) (UniProt P32305); assay: Agonistic activity against rat 5-HT7 adenyl cyclase expressed by HEK293 cells; type: functional, cell-based
[4] = biological target: 5-hydroxytryptamine receptor 7 (Rattus norvegicus) (UniProt P32305); details: HEK293

Structure (SMILES)	Ki [1] [nM]	Increase [2]	Increase [3] [%]	Increase [4]
Cc1[nH]c(C)c(-c2cccc3c2CC[C@H](N(C)C)C3)c1C	0.832	Active	–	–
Cc1c(NC2=NCCN2)cccc1-c1ccccc1	–	Active	–	–
COc1ccc2[nH]cc(CCN)c2c1	–	Active	–	–
NCCc1c[nH]c2ccc(C(N)=O)cc12	–	–	100	–
c1ccc2c(N3CCNCC3)cccc2c1	–	Active	–	–
COc1ccc2cccc(N3CCNCC3)c2c1	20.4	–	25	–
COc1ccccc1N1CCNCC1	–	Active	–	–
CCCN(CCC)[C@@H]1CCc2cccc(O)c2C1	45.7	Active	–	–
COc1ccc2[nH]cc(CCN(C)C)c2c1 [MEBUFOTENIN]	39.8	–	92	–
CCCN(CCC)[C@@H]1CCc2cccc(OC)c2C1	33.9	–	92	–
COc1ccc2[nH]c(C)c(CCN(C)C)c2c1	1120	–	17	–
NCCc1c[nH]c2ccc(O)cc12	–	–	–	Active
COc1ccc2[nH]cc(CCN3CCCC3)c2c1	631	–	39	–
CN(C)CCc1c[nH]c2ccc(O)cc12 [BUFOTENINE]	7.94	Active	–	–
CCN(CC)C(=O)[C@@H]1C=C2c3cccc4[nH]cc(c34)C[C@H]2N(C)C1	–	Active	–	–
COc1ccc2c(c1)CC[C@@H](N)C2	1580	–	58	–
CCN(CC)[C@@H]1CCc2cccc(OC)c2C1	87.1	–	73	–
COc1cccc2c1C[C@H](N)CC2	123	–	73	–
CN(C)[C@H]1CCc2c(cccc2-c2cccc3ccccc23)C1	0.251	Active	–	–
CCCN(CCC)[C@H]1CCc2cccc(OC)c2C1	339	–	99	–
